Experimental data taken from US7834019B2, “Substituted pyrazolo[3,4-d]pyrimidinone derivatives” (Banyu Pharmaceutical Co., Ltd., priority 2006, dated 2010).

Test system: Cdc2 (Cdk1) tyrosine 15-phosphorylation
Assay: Cdc2 (Cdk1) tyrosine 15-phosphorylation-inhibitory effect in NCI-H1299 cells + camptothecin (ELISA)
Format: cell-based
Settings: Homo sapiens, camptothecin 200 nM for 16 hours, then test compound with nocodazole for 8 hours, read-out: Cdc2-Y15 Phosphorylation-Inhibitory Effect (H1299, + camptothecin) (EC50)
Excerpt: Pharmaceutical Text 2 (Method of Determining Drug Potency in Cells (Cdc2 (Cdk1) Tyrosine 15-Phosphorylation-Inhibitory Effect))
Fetal bovine serum (FBS) was obtained from Morgate; media RPMI1640 and DMEM were from Invitrogen; camptothecin was from Sigma; gemcitabine was from Nippon Eli Lilly; nocodazole and protease inhibitor cocktail were from Sigma; rabbit anti-Cdc2 antibody and mouse anti-Cdc2 antibody were from Santa Cruz Biotechnology; rabbit anti-tyrosine 15-phosphorylated Cdc2 antibody and horseradish peroxidase-labeled anti-mouse IgG antibody were from Cell Signaling Technology; sure blue reserve TMB peroxidase substrate was from Kirkegaard and Perry Laboratories. […]
In the method of using NCI-H1299 cells, the cells were suspended in RPMI1640 containing 10% FBS, and the cell suspension was applied to a 96-well Nunclondelta-processed plastic plate (bought from Nunc), in an amount of 2000 cells/100 μL/well, in which the cells were incubated overnight in 5% CO2-95% air at 37° C. […] Cdc2 was determined through ELISA as follows: A rabbit anti-Cdc2 antibody solution, which had been diluted 200-fold with 50 mM carbonate-bicarbonate buffer (pH 9.6), was applied to a 96-well maxisorpimmuno plate (bought from Nunc), in an amount of 50 μL/well, and statically kept overnight at 4° C. so as to fix the antibody on the plate. […]

C=CCn1c(=O)c2cnc(Nc3ccc(N4CCN(C)CC4)cc3)nc2n1-c1cccc(C(C)(C)O)n1 [Example 53, 2-allyl-1-[6-(1-hydroxy-1-methylethyl)pyridin-2-yl]-6-{[4-(4-methylpiperazin-1-yl)phenyl]amino}-1,2-dihydro-3H-pyrazolo[3,4-d]pyrimidin-3-one] showed an EC50 of 68 nM.
